The record followed here is patent US8933230B2, “Phosphorus-containing group-substituted quinoline, its preparation process, medical composition containing the compounds and application” (priority 2011, dated 2015).

For one assay, the target named is T1, HIPK3 (Homo sapiens, UniProt Q9H422).
T1 construct: purchased DiscoveRx Corporation (KinomeScan)
Briefly: KinomeScan kinase panel. Format: binding. As for the experimental part: (§1) In this example, the compound prepared in Example 10, N1-[4-[[7-[[1-(diethoxyphosphorylmethyl)-4-piperidinyl]methoxyl]-6-methoxyl-4-quinolyl]oxyl]-3-fluorophenyl]-N1′-(4-fluorophenyl)cyclopropane-1,1-dicarboxamide is tested for the inhibitory effect in the 442-kinase panel of KinomeScan™ (www.kinomescan.com) from DiscoveRx Corporation (4215 Sorrento Valley Blvd, San Diego, Calif. 92121) at 1000 nM of the compound concentration, the results are shown in the following Table 5:
(§2) For the detailed information of the screening technique, see Fabian, M. A. et al, Nat., Biotechnol. 2005, 23, 329 and Karaman, M. W. et al, Nat., Biotechnol. 2008, 26, 127. It can be seen from the following representative results that, the compound according to the present invention has significant inhibitory effect on kinases including c-Met, KDR or VEGFR2, RET, PDGFR-β, c-KIT, Flt3, MEK5, DDR1, LOK, CSF1R, EPHA7, EPHA8, EPHB6, MKNK2, BLK, HIPK4, HCK, Flt4 and the mutants thereof

Another assay addresses T2, CSNK2A1 (Homo sapiens, UniProt P68400).
T2 construct: purchased DiscoveRx Corporation (KinomeScan)
Briefly: KinomeScan kinase panel. Format: binding. As for the experimental part:
as §1, §2

The next assay addresses T3, FGFR4 (Homo sapiens, UniProt P22455).
T3 construct: purchased DiscoveRx Corporation (KinomeScan)
The assay is described as follows: KinomeScan kinase panel. Format: binding. As to the method:
as §1, §2

In the next assay the target is T4, BMX (Homo sapiens, UniProt P51813).
T4 construct: purchased DiscoveRx Corporation (KinomeScan)
The assay is described as follows: KinomeScan kinase panel. Format: binding. As to the method: as §1, §2

In the next assay the target is T5, CDKL3 (Homo sapiens, UniProt Q8IVW4).
T5 construct: purchased DiscoveRx Corporation (KinomeScan)
The assay is described as follows: KinomeScan kinase panel. The class given is binding. As for the experimental part: as §1, §2

For the next assay, the target named is T6, AURKB (Homo sapiens, UniProt Q96GD4).
T6 construct: purchased DiscoveRx Corporation (KinomeScan)
The assay is described as follows: KinomeScan kinase panel. Format: binding. As for the experimental part: as §1, §2

For another assay, the target named is T7, EPHB1 (Homo sapiens, UniProt P54762).
T7 construct: purchased DiscoveRx Corporation (KinomeScan)
Briefly: KinomeScan kinase panel. Format: binding. As for the experimental part:
as §1, §2

Assay [1] deals with T8, ABL1(H396P)-nonphosphorylated (Homo sapiens, UniProt P00519, H396P).
T8 construct: purchased DiscoveRx Corporation (KinomeScan)
The assay is described as follows: KinomeScan kinase panel. The class given is binding. As to the method: as §1, §2

Assay [2] deals with T9, JAK1(JH1domain-catalytic) (Homo sapiens, UniProt P23458).
T9 construct: JAK1(JH1domain-catalytic); purchased DiscoveRx Corporation (KinomeScan)
Briefly: KinomeScan kinase panel. Format: binding. As to the method:
as §1, §2

Another assay addresses T10, ROS1 (Homo sapiens, UniProt P08922).
T10 construct: purchased DiscoveRx Corporation
The assay is described as follows: KinomeScan kinase panel. Format: binding. As for the experimental part:
as §1, §2

Another assay deals with T11, PCTK3 (Homo sapiens, UniProt Q07002).
T11 construct: purchased DiscoveRx Corporation (KinomeScan panel)
Briefly: KinomeScan kinase panel. The class given is binding. As to the method: as §1, §2

A further assay addresses T12, TLK2 (Homo sapiens, UniProt Q86UE8).
T12 construct: purchased DiscoveRx Corporation (KinomeScan)
The assay is described as follows: KinomeScan kinase panel. Format: binding. As to the method:
as §1, §2

Another assay concerns the target T13, IKK-epsilon (Homo sapiens, UniProt Q14164).
T13 construct: purchased DiscoveRx Corporation (KinomeScan)
Briefly: KinomeScan kinase panel. Format: binding. As to the method:
as §1, §2

Another assay deals with T14, HUNK (Homo sapiens, UniProt P57058).
T14 construct: purchased DiscoveRx Corporation (KinomeScan)
Briefly: KinomeScan kinase panel. The class given is binding. As for the experimental part: as §1, §2

Another assay concerns the target T15, RIOK1 (Homo sapiens, UniProt Q9BRS2).
T15 construct: purchased DiscoveRx Corporation
Briefly: KinomeScan kinase panel. Format: binding. As for the experimental part: as §1, §2

For the next assay, the target named is T16, ERK5 (Homo sapiens, UniProt Q13164).
T16 construct: purchased DiscoveRx Corporation (KinomeScan)
Briefly: KinomeScan kinase panel. The class given is binding. As for the experimental part:
as §1, §2

A further assay deals with T17, MAP3K3 (Homo sapiens, UniProt Q99759).
T17 construct: purchased DiscoveRx Corporation (KinomeScan)
Briefly: KinomeScan kinase panel. Format: binding. As to the method: as §1, §2

The target of a further assay is T18, PIK3CA(Q546K) (Homo sapiens, UniProt P42336, Q546K).
T18 construct: purchased DiscoveRx Corporation (KinomeScan)
Briefly: KinomeScan kinase panel. Format: binding. As to the method:
as §1, §2

Assay [3] deals with T19, ABL1(Q252H)-nonphosphorylated (Homo sapiens, UniProt P00519, Q252H).
T19 construct: purchased DiscoveRx Corporation (KinomeScan)
The assay is described as follows: KinomeScan kinase panel. The class given is binding. As to the method: as §1, §2

In the next assay the target is T20, c-KIT (Homo sapiens, UniProt P10721).
T20 construct: cell line M07e having endogenous high expression wild type c-KIT; endogenous in cells; host or cells: M07e
The assay is described as follows: c-KIT kinase phosphorylation in M07e cells (sandwich ELISA). The class given is cell-based. The following applies: SCF 100 ng/mL 3 min, mean value of two testing results, read-out: IC50 values in the cell, c-KIT. As to the method: (§3) Inhibitory activity on the kinases in tumor cells: In this example, the compound prepared in Example 10, N1-[4-[[7-[[1-(diethoxyphosphorylmethyl)-4-piperidinyl]methoxyl]-6-methoxyl-4-quinolyl]oxyl]-3-fluorophenyl]-N1′-(4-fluorophenyl)cyclopropane-1,1-dicarboxamide is tested in tumor cells by ProQinase GmbH corporation (Breisacher Str. 117, D-79106 Freiburg, Germany. www.proqinase.com) for the inhibitory activity on the following kinases: c-KIT, c-MET, VEGFR2 and PDGFR-β. The test includes the following steps:
(§4) Firstly, the compound according to present invention is dissolved in dimethyl sulfoxide (DMSO) to prepare a 10 mM stock solution, which is diluted serially according to the concentration range shown in Table 6:
c-KIT kinase: in the test experiment of KIT kinase phosphorylation in the cells, human acute megakaryocytic leukemia cell line M07e having endogenous high expression wild type c-KIT is used. When these cells are stimulated with human stem cell factor (SCF), the tyrosine of KIT receptor kinases is self-phosphorylated. M07e cells are inoculated in RPMI containing 20% fetal calf serum (FCS) and 10 ng/ml GM-CSF in a multi-well cell culture dish. The compound of the invention is added to the cells after overnight starvation of serum and growth factor, then the cells are cultured in a medium without serum. […]

In another assay the target is T21, PDGFR-β (Mus musculus, UniProt P05622).
T21 construct: cell line NIH3T3 having endogenous high expression wild type PDGFR-β; endogenous in cells; host or cells: NIH3T3
Briefly: PDGFR-β kinase phosphorylation in NIH3T3 cells (sandwich ELISA). The class given is cell-based. The following applies: PDGF-BB 100 ng/mL 3 min, mean value of two testing results, read-out: IC50 values in the cell, PDGFR-β. As for the experimental part: as §3, §4
PDGFR-β kinase: in the test experiment of PDGFR-beta kinase phosphorylation in the cells, mouse embryo fibroblast cell line NIH3T3 having endogenous high expression wild type PDGFR-β (wild-type PDGFR-β) is used. When these cells are simulated with mouse platelet-derived growth factor BB (PDGF-BB), it causes the tyrosine of PDGFR-beta receptor kinases self-phosphorylated. NIH3T3 cells are inoculated in DMEM culture solution containing 10% FCS in a multi-well cell culture dish. The compound of the invention is added to the cells after serum overnight starvation, then the cells are cultured in a medium without serum. […]

T18 sequence (P42336 whole entry Q546K): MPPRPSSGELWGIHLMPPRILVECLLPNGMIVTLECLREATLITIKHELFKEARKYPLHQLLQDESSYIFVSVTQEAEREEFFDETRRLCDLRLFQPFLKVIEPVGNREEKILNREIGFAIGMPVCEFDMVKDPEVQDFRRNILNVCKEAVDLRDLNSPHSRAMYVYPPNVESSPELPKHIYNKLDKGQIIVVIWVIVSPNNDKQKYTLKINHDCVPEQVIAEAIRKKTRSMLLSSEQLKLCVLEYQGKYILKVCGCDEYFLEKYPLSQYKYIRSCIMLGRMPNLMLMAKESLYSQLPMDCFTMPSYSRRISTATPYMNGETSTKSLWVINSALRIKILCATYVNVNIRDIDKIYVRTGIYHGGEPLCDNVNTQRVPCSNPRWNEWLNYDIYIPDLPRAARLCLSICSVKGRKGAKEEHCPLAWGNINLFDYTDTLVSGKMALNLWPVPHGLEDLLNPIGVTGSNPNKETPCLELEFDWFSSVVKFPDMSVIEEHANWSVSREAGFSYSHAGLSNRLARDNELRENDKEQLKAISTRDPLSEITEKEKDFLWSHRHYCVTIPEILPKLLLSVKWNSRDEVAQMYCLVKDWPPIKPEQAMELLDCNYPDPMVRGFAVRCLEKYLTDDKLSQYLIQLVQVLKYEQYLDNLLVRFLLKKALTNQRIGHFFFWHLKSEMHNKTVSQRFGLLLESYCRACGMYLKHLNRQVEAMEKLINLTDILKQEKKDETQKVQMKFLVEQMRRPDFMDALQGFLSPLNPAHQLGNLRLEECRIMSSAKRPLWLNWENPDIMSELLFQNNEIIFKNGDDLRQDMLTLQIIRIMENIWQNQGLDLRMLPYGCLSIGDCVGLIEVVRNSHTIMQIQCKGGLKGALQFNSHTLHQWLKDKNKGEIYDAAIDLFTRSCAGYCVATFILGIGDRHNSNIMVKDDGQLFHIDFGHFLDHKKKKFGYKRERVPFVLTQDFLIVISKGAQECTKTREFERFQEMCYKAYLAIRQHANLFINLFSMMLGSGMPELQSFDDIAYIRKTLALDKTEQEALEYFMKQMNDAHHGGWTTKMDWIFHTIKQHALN
T4 sequence (P51813 whole entry): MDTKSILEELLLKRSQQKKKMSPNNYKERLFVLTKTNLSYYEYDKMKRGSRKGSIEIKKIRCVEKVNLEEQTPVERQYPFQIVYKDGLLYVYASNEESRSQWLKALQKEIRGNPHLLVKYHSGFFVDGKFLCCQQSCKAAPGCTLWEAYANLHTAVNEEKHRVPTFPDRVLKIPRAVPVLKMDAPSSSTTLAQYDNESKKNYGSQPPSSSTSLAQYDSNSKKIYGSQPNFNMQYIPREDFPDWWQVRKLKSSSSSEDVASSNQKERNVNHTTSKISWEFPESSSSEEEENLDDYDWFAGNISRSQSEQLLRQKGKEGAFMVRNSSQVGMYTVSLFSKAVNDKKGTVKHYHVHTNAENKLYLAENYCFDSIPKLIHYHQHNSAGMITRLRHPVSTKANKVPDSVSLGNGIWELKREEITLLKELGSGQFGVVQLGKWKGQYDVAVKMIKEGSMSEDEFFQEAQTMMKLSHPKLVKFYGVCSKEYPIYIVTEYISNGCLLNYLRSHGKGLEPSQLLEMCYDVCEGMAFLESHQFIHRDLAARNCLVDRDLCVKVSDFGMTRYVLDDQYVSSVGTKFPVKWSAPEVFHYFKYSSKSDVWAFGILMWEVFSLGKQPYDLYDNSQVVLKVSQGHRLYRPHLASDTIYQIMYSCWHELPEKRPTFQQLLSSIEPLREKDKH
T6 sequence (Q96GD4 whole entry): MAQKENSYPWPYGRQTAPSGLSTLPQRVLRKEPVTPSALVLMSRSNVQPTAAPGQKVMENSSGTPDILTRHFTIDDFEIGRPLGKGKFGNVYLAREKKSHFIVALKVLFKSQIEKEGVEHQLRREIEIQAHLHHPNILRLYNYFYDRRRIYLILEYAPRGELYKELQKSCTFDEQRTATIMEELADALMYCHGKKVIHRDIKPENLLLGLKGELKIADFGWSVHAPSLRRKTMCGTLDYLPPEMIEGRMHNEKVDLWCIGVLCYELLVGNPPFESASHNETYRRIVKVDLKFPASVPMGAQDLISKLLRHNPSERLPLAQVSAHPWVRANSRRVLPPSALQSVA
T2 sequence (P68400 whole entry): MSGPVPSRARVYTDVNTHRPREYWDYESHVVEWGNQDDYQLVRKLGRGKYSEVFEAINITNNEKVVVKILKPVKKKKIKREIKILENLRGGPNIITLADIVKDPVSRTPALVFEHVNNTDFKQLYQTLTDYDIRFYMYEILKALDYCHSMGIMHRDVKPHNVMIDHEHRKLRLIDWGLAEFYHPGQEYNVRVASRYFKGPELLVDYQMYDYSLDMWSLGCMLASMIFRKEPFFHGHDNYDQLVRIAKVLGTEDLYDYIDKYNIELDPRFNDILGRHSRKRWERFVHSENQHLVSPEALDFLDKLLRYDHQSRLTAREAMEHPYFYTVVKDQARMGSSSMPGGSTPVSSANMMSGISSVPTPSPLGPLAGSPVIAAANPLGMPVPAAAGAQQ
T21 sequence (P05622 32-1098): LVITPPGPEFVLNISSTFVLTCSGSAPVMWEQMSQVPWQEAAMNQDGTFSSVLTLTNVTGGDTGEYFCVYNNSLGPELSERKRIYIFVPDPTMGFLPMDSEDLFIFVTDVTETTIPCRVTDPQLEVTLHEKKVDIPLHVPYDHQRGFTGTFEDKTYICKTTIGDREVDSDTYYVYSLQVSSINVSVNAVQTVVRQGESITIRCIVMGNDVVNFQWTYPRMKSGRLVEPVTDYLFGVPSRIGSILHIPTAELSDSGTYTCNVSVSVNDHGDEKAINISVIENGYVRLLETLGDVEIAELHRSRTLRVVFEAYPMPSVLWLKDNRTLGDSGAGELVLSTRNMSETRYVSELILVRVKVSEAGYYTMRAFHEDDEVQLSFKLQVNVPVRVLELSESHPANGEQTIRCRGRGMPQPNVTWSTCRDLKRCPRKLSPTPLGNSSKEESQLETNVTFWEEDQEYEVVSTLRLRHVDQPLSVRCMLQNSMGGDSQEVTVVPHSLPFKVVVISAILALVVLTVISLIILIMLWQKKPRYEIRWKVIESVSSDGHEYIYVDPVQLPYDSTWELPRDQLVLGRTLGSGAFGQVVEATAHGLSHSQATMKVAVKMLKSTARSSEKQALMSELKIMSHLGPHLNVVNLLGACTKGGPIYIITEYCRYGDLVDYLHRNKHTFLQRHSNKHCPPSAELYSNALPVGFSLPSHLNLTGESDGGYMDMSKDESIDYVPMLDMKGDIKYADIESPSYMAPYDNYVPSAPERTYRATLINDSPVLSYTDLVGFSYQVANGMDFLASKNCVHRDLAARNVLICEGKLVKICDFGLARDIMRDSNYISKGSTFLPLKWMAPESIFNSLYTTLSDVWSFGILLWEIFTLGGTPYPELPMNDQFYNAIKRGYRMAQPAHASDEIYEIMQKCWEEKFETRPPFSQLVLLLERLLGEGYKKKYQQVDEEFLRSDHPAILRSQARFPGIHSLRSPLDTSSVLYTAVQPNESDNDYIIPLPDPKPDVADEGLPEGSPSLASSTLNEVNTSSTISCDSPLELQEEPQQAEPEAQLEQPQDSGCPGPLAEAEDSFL
T7 sequence (P54762 18-984): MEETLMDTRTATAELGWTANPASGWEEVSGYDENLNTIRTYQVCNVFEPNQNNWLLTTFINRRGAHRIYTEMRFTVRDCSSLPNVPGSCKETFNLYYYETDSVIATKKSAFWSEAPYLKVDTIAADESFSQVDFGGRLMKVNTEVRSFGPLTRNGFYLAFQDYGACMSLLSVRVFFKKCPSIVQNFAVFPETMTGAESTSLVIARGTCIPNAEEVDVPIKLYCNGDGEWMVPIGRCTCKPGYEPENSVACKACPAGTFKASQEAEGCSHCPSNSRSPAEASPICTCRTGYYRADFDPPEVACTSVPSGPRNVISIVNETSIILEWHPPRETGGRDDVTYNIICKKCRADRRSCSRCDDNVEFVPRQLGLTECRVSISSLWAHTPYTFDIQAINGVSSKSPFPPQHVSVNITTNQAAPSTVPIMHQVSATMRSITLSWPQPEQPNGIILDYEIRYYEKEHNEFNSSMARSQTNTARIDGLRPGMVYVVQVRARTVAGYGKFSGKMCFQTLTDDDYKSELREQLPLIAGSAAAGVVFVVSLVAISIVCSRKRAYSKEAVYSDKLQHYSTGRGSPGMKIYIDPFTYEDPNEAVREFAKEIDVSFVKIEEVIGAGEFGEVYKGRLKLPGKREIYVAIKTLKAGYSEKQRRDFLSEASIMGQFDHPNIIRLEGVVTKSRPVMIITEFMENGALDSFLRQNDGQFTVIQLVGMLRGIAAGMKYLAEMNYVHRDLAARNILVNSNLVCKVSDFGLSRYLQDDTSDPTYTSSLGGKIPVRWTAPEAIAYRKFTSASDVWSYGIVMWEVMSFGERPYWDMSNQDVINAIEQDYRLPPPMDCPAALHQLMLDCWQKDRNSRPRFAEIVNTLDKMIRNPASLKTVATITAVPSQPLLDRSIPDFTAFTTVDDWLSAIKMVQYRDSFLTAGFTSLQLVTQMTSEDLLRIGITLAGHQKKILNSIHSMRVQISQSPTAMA
T9 sequence (P23458 875-1153 limits assumed): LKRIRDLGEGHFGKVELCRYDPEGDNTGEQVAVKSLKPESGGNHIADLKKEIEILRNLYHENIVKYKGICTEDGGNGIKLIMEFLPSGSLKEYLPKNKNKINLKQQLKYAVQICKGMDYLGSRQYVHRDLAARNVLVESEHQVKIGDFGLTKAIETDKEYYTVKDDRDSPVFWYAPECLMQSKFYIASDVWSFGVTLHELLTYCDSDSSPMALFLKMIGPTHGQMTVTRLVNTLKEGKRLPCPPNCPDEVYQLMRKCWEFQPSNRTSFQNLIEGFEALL

In general, IC50 refers to the concentration that inhibits the measured activity by half. As for `CCOP(=O)(CN1CCC(COc2cc3nccc(Oc4ccc(NC(=O)C5(C(=O)Nc6ccc(F)cc6)CC5)cc4F)c3cc2OC)CC1)OCC` [Example 10, N1-[4-[[7-[[1-(diethoxyphosphorylmethyl)-4-piperidinyl]methoxyl]-6-methoxyl-4-quinolyl]oxyl]-3-fluorophenyl]-N1′-(4-fluorophenyl)cyclopropane-1,1-dicarboxamide], the “% Ctrl@1000 nM” value on HIPK3 was 66 % Ctrl; at CSNK2A1, 100 % Ctrl; on FGFR4 it was 100 % Ctrl; on BMX, 92 % Ctrl; at CDKL3, 100 % Ctrl; at AURKB, 74 % Ctrl. The “% Ctrl@1000 nM” value on EPHB1 came to 4.6 % Ctrl; in [1] it was 1.9 % Ctrl; in assay [2] it was 93 % Ctrl; at ROS1 it was 29 % Ctrl; on PCTK3 it was 100 % Ctrl; at TLK2, 100 % Ctrl. Further, the “% Ctrl@1000 nM” value at IKK-epsilon was found to be 94 % Ctrl; on HUNK it was 100 % Ctrl; on RIOK1, 100 % Ctrl; at ERK5, 100 % Ctrl; at MAP3K3 it was 100 % Ctrl; on PIK3CA(Q546K), 100 % Ctrl. Moreover, the “% Ctrl@1000 nM” value in [3] turned out to be 2.4 % Ctrl. Moreover, the IC50 worked out at 27 nM on c-KIT and 13 nM on PDGFR-β.
